One assay has as its system HEL 92.1.7. Briefly: MTT cell viability assay, HEL cells. The following applies: Homo sapiens, 48 h drug exposure. It counts as cell-based. As for the experimental part:
HEL 92.1.7 [American Type Culture Collection (ATCC) reference number TIB-180]. This a human cancer cell line derived from the bone marrow of a person with erythroleukemia, which is a form of AML.
(§1) Cell viability was assayed by measuring the mitochondrial reduction of the tetrazolium salt 3-(4,5-methyltiazol-2yl)-2,5diphenyl-tetrazolium bromide] (MTT) (Applichen; A2231,0010) [Mosmann T. J Immunol Methods. 1983 16;65(1-2):55-63 (ref. 36); Chuan Y-C et al 2010. Oncogene. 29 (10), 1531-1542 (ref. 37)]. Cells were seeded in 96-well plates in medium (either RPMI, DMEM or McCoys depending on the recommendations from the ATCC) supplemented with 10% FBS (Lonza Cat. N°: 14-502F), 2mM L-Glut (Lonza Cat. N°: BE17-605E) and 100U/ml PEST (Lonza Cat. N°: DE17-605E) at a cell density of 1000-5000 cells/well (96 well plate). Cells were seeded at a density according to their exponential growth phase (normally 1000 to 5000/well). The cells were cultured at 37 °C in the dark in air containing 5% CO2. After 24h either vehicle (0.05% DMSO) or drug were added to culture medium at the indicated concentrations (10 to 0,01microM). After another 48 h, MTT (0.3 mg/ml) was added to cells, followed by incubation for 2-4h at 37 °C in the dark. The medium was then removed and the precipitated formazan was solubilized by the addition of DMSO (200 µL).
(§2) The optical density was measured at 595 nm with the iMark Microplate Reader (BioRad, USA). Data was expressed as percent growth above the level in controls and the results in figures were plotted as means ± SEM of each test point from 3 replicates.
(§3) Statistical analysis. The concentration of drug that provokes 50% reduction of cell viability (IC50) was determined by using non-linear regression analysis and data were fitted to a log concentration vs normalized response curve in GraphPad software v5 (San Diego, CA).
A general note: Formazan colour is commonly taken as a measure of viable cells.

The test system of another assay is MCF-7. Put plainly: MTT cell viability assay, MCF-7 cells. Type of assay: cell-based. Particulars: Homo sapiens, MCF7, 48 h drug exposure. The procedure: as §1, §2, §3
In the next assay the test system is K562. Put plainly: MTT cell viability assay, K562 cells. Type of assay: cell-based. Particulars: Homo sapiens, 48 h drug exposure. As for the experimental part:
K562 [American Type Culture Collection (ATCC) reference number CCL-243]. This a human cancer cell line derived from the bone marrow of a person with CML.
as §1, §2, §3

For the next assay, the system named is MDA-MB-231. Briefly: MTT cell viability assay, MDA-MB-231 cells. Type of assay: cell-based, human. Particulars: Homo sapiens, 48 h drug exposure. The procedure:
MDA-MB-231 [American Type Culture Collection (ATCC) reference number HTB-26]. This a human breast cancer cell line derived from a metastatic site from a person.
as §1, §2, §3

The next assay deals with PANC-1. Put plainly: MTT cell viability assay, PANC-1 cells. Type of assay: cell-based. The following applies: Homo sapiens, 48 h drug exposure. The procedure:
PANC-1 [American Type Culture Collection (ATCC) reference number CRL-1469]. This a human cancer cell line derived from the pancreas of a person.
as §1, §2, §3

Another assay deals with DU-145. Briefly: MTT cell viability assay, DU-145 cells. It counts as cell-based. Particulars: Homo sapiens, 48 h drug exposure. The procedure: DU-145 [American Type Culture Collection (ATCC) reference number HTB-81]. This a human prostate cancer cell line derived from a metastatic site (brain) of a person.
as §1, §2, §3

Take `N#Cc1ccc(N2Cc3ccccc3OC3=C2C(=O)c2ccccc2C3=O)cc1` [Compound 2, 4-(6,11-dioxo-6,11-dihydrobenzo[f]naphtho[2,3-b][1,4]oxazepin-12(13H)-yl)benzonitrile]: the IC50 (usually the concentration that inhibits the measured activity by half) was 0.35 µM in the assay with HEL 92.1.7; 4.22 µM in the assay on MCF-7; 0.57 µM in the assay on K562; 4.02 µM with MDA-MB-231; 5.6 µM in the assay on PANC-1; greater than 10 µM with DU-145.
Turning to `O=C1C2=C(C(=O)c3ccccc31)N(c1cccnc1)Cc1ccccc1O2` [Compound 4, 12-(pyridin-3-yl)-12,13-dihydrobenzo[f]naphtho[2,3-b][1,4]oxazepine-6,11-dione], the IC50 in the assay with MCF-7 was 5.12 µM; with K562, 0.98 µM; with MDA-MB-231 it was 1.52 µM; with PANC-1 it was 4.36 µM; with DU-145, 8.9 µM.
`N#Cc1cccc(N2Cc3ccccc3OC3=C2C(=O)c2c(O)ccc(O)c2C3=O)c1` [Compound 9, 3-(7,10-dihydroxy-6,11-dioxo-6,11-dihydrobenzo[f]naphtho[2,3-b][1,4]oxazepin-12(13H)-yl)benzonitrile]: the IC50 is 1.15 µM in the assay on MCF-7; 0.08 µM in the assay on K562; 0.38 µM with MDA-MB-231; 0.46 µM in the assay on PANC-1; 2.53 µM in the assay on DU-145.
Taken in the same sequence, the figures for `NC(=O)c1ccc(N2Cc3ccccc3OC3=C2C(=O)c2c(O)ccc(O)c2C3=O)cc1` [Compound 10, 4-(7,10-dihydroxy-6,11-dioxo-6,11-dihydrobenzo[f]naphtho[2,3-b][1,4]oxazepin-12(13H)-yl)benzamide] were 1.85 µM, 0.09 µM, 0.63 µM, 0.36 µM and 6.18 µM.
Consider `COc1ccc2c(c1)OC1=C(C(=O)c3c(O)ccc(O)c3C1=O)N(C(=O)c1ccc(C#N)cc1)C2` [Compound 13], for which the IC50 in the assay with MCF-7 worked out at 2.75 µM; with K562, 0.32 µM; in the assay on MDA-MB-231 it was 0.78 µM; with PANC-1 it was 0.46 µM; with DU-145, 3.72 µM.
As to `NC(=O)c1ccc(N2Cc3ccccc3OC3=C2C(=O)c2ccccc2C3=O)cc1` [Compound 17, 4-(6,11-dioxo-6,11-dihydrobenzo[f]naphtho[2,3-b][1,4]oxazepin-12(13H)-yl)benzamide], the IC50 in the assay on MCF-7 amounted to 5.91 µM; in the assay with K562, 0.65 µM; in the assay with DU-145, 5.77 µM.
As to `NS(=O)(=O)c1ccc(N2Cc3ccccc3OC3=C2C(=O)c2ccccc2C3=O)cc1` [Compound 19], the IC50 in the assay on HEL 92.1.7 was found to be 1 µM; in the assay on MCF-7 it was 7.9 µM; in the assay with K562 it was 1.39 µM; in the assay with DU-145, 8.36 µM.
Consider `NS(=O)(=O)c1ccc(N2Cc3cc(F)ccc3OC3=C2C(=O)c2c(O)ccc(O)c2C3=O)cc1` [Compound 23], for which the IC50 with MCF-7 was found to be 3.23 µM; in the assay on K562 it was 0.54 µM; in the assay on MDA-MB-231, 2.54 µM; in the assay with PANC-1, 0.57 µM; with DU-145 it was 8.16 µM.
Turning to `COc1cccc2c1OC1=C(C(=O)c3c(O)ccc(O)c3C1=O)N(c1ccc(C#N)cc1)C2` [Compound 26], the IC50 turned out to be 3.17 µM in the assay on MCF-7; 0.13 µM with K562; 0.39 µM in the assay with MDA-MB-231; 0.47 µM in the assay on PANC-1; 7.35 µM in the assay on DU-145.
As for `NC(=O)c1ccc(N2Cc3cc(Cl)ccc3OC3=C2C(=O)c2c(O)ccc(O)c2C3=O)cc1` [Compound 41], the IC50 in the assay with MCF-7 was 1.53 µM; in the assay with K562, 0.22 µM; in the assay on MDA-MB-231, 0.98 µM; in the assay on PANC-1, 0.39 µM; in the assay on DU-145 it was 3.74 µM.
Regarding `O=C1C2=C(C(=O)c3c(O)ccc(O)c31)N(c1ccccc1)Cc1ccccc1O2` [Compound 45, 7,10-dihydroxy-12-phenyl-12,13-dihydrobenzo[f]naphtho[2,3-b][1,4]oxazepine-6,11-dione], the IC50 in the assay on HEL 92.1.7 stood at 0.09 µM; with K562, 0.09 µM; with MDA-MB-231, 0.13 µM; in the assay with DU-145, 0.57 µM.
As to `COc1cccc2c1OC1=C(C(=O)c3c(O)ccc(O)c3C1=O)N(c1ccc(C(N)=O)cc1)C2` [Compound 56], the IC50 in the assay with MCF-7 turned out to be 3.04 µM; in the assay on K562, 0.19 µM; in the assay on MDA-MB-231 it was 0.4 µM; in the assay with DU-145, 7.22 µM.
In the case of `CN(CCO)c1ccc(N2Cc3ccccc3OC3=C2C(=O)c2c(O)ccc(O)c2C3=O)cn1` [Compound 61], the IC50 in the assay with HEL 92.1.7 was 0.1 µM; with K562 it was 0.16 µM; in the assay on MDA-MB-231, 0.41 µM; in the assay on DU-145, 0.92 µM.
For the compound `CN(C)CCNc1ccc(N2Cc3ccccc3OC3=C2C(=O)c2ccccc2C3=O)cn1` [Compound 73], the IC50 with MCF-7 was found to be 2.27 µM; in the assay on MDA-MB-231, 1.64 µM; with PANC-1, 1.7 µM; in the assay with DU-145, 2.7 µM.
In the case of `N#Cc1ccc(N2Cc3ccccc3OC3=C2C(=O)c2cccc(O)c2C3=O)cc1` [Compound 75], the IC50 is 2.36 µM with MCF-7, 2.7 µM with MDA-MB-231, 5.49 µM in the assay on PANC-1 and 3.89 µM with DU-145.
For `O=C1C2=C(Oc3ccccc3CN2c2cccnc2)C(=O)c2c(O)cccc21` [Compound 76] the same measures were 2 µM, 1.8 µM, 1.86 µM and 2.3 µM.
For `CN(C)CCNc1ccc(N2Cc3ccccc3OC3=C2C(=O)c2c(O)ccc(O)c2C3=O)cn1` [Compound 97, 12-(6-((2-(dimethylamino)ethyl)amino)pyridin-3-yl)-7,10-dihydroxy-12,13-dihydrobenzo[f]naphtho[2,3-b][1,4]oxazepine-6,11-dione], the IC50 turned out to be 0.79 µM in the assay with MCF-7; 0.44 µM in the assay with K562; 0.35 µM in the assay with MDA-MB-231; 0.42 µM with PANC-1; 0.68 µM in the assay on DU-145.
For `CN(C)c1ccc(N2Cc3ccccc3OC3=C2C(=O)c2ccccc2C3=O)cn1` [Compound 98], the IC50 turned out to be 3.54 µM with MCF-7, 2.17 µM with MDA-MB-231, 2.94 µM in the assay on PANC-1 and 4.7 µM in the assay on DU-145.
For `O=C1C2=C(C(=O)c3ccccc31)N(c1ccc(N3CCOCC3)nc1)Cc1ccccc1O2` [Compound 99] the same measures were 2.28 µM, 2.09 µM, 2.61 µM and 4.3 µM.
Taken in the same sequence, the figures for `CN1CCN(c2ccc(N3Cc4ccccc4OC4=C3C(=O)c3ccccc3C4=O)cn2)CC1` [Compound 100, 12-(6-(4-methylpiperazin-1-yl)pyridin-3-yl)-12,13-dihydrobenzo[f]naphtho [2,3-b][1,4]oxazepine-6,11-dione] were 1.95 µM, 1.63 µM, 1.8 µM and 3.4 µM.
As to `CN(C)c1ccc(N2Cc3ccccc3OC3=C2C(=O)c2cccc(O)c2C3=O)cn1` [Compound 103], the IC50 with MCF-7 amounted to 1.74 µM; in the assay with MDA-MB-231, 1.4 µM; in the assay on PANC-1, 1.41 µM; in the assay on DU-145, 1.8 µM.
In the case of `O=C1C2=C(Oc3ccccc3CN2c2ccc(N3CCOCC3)nc2)C(=O)c2c(O)cccc21` [Compound 104], the IC50 is 1.82 µM in the assay on MCF-7, 1.02 µM with MDA-MB-231, 1.23 µM in the assay on PANC-1 and 1.6 µM in the assay with DU-145.
Taken in the same sequence, the figures for `CN(C)CCNc1ccc(N2Cc3ccccc3OC3=C2C(=O)c2cccc(O)c2C3=O)cn1` [Compound 105] were 1.99 µM, 0.71 µM, 0.69 µM and 1.51 µM.

The record behind these values is patent EP4177246A1, “FUSED OXAZEPINES AS INHIBITORS OF PEROXIREDOXINS” (Centro Atlántico del Medicamento, SA, priority 2021, dated 2023).
